Experiment [1] concerns the target T1, Caspase-3 (Homo sapiens, UniProt P42574).
T1 sequence (P42574 whole entry): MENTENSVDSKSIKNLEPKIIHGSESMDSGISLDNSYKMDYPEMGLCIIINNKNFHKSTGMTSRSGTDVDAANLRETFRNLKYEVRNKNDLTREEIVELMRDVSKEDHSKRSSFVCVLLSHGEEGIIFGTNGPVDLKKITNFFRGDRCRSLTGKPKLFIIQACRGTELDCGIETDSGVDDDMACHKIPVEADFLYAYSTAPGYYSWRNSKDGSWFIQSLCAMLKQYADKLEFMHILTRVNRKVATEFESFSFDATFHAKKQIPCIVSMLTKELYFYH
Nature of the experiment: procaspase-3 activators, dose response, biochemical, absorbance (AID 489014).

Experiment [2] has as its target T2, Caspase-7 (Homo sapiens, UniProt P55210).
T2 sequence (P55210 whole entry): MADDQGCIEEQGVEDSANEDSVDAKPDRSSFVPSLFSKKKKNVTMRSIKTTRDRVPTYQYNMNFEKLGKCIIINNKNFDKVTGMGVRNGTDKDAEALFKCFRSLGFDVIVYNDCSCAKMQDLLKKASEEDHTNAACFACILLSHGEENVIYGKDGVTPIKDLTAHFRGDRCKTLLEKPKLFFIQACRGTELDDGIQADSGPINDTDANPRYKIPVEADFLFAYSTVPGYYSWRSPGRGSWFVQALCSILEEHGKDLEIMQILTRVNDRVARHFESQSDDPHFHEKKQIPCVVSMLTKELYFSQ
As to the kind of experiment: procaspase-7 activators, dose response, counter-screen for procaspase-3 activator project, biochemical, absorbance (AID 489013).

The nature of experiment [3]: cytotoxicity in BJeH fibroblasts, dose response, counter-screen for Ras selective lethality project, BJeH cells, dry powder (AID 493054). Type of experiment: functional, cell-based.
Experiment [4] can be described thus: viability loss in HRASV12 DRD fibroblasts, dose response, cell-based, DRD BJ fibroblasts, dry powder (AID 493049). Type of experiment: functional.
Experiment [5] can be described thus: cytotoxicity in BJeHLT fibroblasts, dose response, counter-screen for Ras selective lethality project, BJeHLT cells, dry powder (AID 493052). The settings on record: Homo sapiens. Type of experiment: functional, cell-based. For orientation: The purpose of a counterscreen is to sort out artefacts and off-target activity.
The nature of experiment [6]: viability loss in BJeLR (HRASV12) cells, primary screen, Ras selective lethality project, cell-based, Alamar Blue, dry powder (AID 493045). Type of experiment: functional.
Experiment [7] has as its system Streptococcus sp. 'group A'. Nature of the experiment: growth inhibition of control SK(-) GAS strain, dose response, counter-screen for streptokinase expression inhibitor project, luminescence, kanamycin, BacTiterGlo, confirmation (AID 1900). Type of experiment: functional, organism-based.
Experiment [8] has as its target Albumin (Bos taurus, UniProt P02769). As to the kind of experiment: Counterscreen for inhibitors of T-cell receptor (TCR)-CD3 interaction: Fluorescence-based biochemical high throughput dose response assay to identify inhibitors of T-cell receptor (TCR)-CD3 interaction using a TAMRA-labeled BSA probe. Type of experiment: functional.
In experiment [9] the target is NACHT, LRR and PYD domains-containing protein 3 (Homo sapiens, UniProt Q96P20). As to the kind of experiment: NALP3 inhibitors in yeast, dose response, luminescent (AID 488799). Type of experiment: functional.
In experiment [10] the target is T3, Streptokinase A (Streptococcus pyogenes serotype M1, UniProt P10520).
T3 sequence (P10520 whole entry): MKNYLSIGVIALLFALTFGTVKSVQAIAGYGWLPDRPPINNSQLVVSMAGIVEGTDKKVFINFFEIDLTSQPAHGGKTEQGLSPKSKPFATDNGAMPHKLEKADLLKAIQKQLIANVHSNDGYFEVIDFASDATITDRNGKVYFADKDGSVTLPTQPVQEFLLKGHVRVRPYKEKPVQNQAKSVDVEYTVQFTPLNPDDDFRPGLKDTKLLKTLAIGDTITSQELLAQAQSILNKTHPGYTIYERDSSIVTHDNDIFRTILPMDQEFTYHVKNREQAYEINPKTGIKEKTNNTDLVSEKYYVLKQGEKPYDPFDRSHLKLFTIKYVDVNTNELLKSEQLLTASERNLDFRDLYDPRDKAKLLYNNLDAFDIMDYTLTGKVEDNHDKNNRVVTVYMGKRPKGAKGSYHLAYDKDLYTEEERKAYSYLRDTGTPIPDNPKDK
As to the kind of experiment: S. pyogenes streptokinase expression inhibitors, potency, dose response, plasminogen activation absorbance, OD405 (AID 1914).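 Note: secreted streptokinase activity via plasminogen activation per viability signal from cell pellet.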 Type of experiment: functional, Streptococcus pyogenes M1 GAS.

Experiment [11] deals with T4, Corticotropin-releasing factor receptor 2/Corticotropin-releasing factor-binding protein (Homo sapiens, UniProt P24387+Q13324).
T4 sequence (Q13324 whole entry): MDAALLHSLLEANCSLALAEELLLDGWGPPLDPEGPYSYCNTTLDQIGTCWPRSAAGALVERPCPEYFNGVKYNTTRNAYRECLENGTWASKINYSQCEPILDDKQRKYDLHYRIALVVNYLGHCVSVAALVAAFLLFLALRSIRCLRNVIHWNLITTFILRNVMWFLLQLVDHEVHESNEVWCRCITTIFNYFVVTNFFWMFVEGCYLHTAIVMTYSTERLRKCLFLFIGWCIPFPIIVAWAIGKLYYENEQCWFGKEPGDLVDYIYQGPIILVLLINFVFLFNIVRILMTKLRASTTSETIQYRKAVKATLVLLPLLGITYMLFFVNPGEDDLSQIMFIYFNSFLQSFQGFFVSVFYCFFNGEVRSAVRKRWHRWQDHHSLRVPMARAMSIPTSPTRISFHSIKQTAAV
T4 sequence (P24387 whole entry): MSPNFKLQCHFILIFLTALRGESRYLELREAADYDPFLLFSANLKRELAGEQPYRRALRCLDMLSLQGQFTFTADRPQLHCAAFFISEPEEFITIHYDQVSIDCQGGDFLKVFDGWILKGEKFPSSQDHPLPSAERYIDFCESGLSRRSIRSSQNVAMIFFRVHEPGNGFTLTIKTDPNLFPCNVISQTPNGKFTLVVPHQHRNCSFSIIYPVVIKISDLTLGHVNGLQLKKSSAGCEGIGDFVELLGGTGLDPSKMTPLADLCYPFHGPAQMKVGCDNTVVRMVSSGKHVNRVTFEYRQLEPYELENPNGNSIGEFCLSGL
Nature of the experiment: activators of CRF receptor 2 with binding protein – uHTS hits, confirmation (AID 602473). Type of experiment: functional. As to conditions: read-out: EC50_Mean.

Experiment [12] relates to Streptococcus. As to the kind of experiment: Group A Streptococcus viability loss, dose response, counter-screen for streptokinase expression inhibitor project, luminescence, BacTiterGlo (AID 1915).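 Note: potency for reduction of bacterial viability or growth.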 Type of experiment: functional, organism-based.
The target of experiment [13] is T5, Dual specificity protein phosphatase 3 (Homo sapiens, UniProt P51452). Nature of the experiment: SAR VHR1 Fluorescent Assay for In Vitro dose response studies. [Related pubchem assays (depositor defined):AID1654, AID1661, AID1878, AID1992, AID2004, AID2070, AID2085]. Type of experiment: functional.
Experiment [14] deals with T5, Dual specificity protein phosphatase 3. Nature of the experiment: SAR VHR1 absorbance Assay for In Vitro dose response studies. [Related pubchem assays (depositor defined):AID1654, AID1661, AID1878, AID1992, AID2004].
The target of experiment [15] is T6, Tyrosine-protein phosphatase non-receptor type 7 (Homo sapiens, UniProt P35236).
T6 sequence (P35236 whole entry): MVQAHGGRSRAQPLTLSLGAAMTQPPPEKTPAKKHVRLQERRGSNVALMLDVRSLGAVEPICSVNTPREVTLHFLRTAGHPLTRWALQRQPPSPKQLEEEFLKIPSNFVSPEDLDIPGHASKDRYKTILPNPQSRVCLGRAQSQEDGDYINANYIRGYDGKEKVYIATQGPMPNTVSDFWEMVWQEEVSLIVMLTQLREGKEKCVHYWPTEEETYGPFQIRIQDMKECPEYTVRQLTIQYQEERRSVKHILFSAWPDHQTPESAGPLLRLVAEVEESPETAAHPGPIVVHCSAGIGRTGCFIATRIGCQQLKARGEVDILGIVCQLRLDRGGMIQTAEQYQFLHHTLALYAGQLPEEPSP
As to the kind of experiment: redox-dependent HePTP inhibition, mechanism study, biochemical, fluorescence (AID 2068). Type of experiment: functional.

The target of experiment [16] is T5, Dual specificity protein phosphatase 3. As to the kind of experiment: SAR VHR1 Fluorescent Assay for In Vitro dose response studies Set 2. [Related pubchem assays (depositor defined):AID1654, AID1661, AID1878]. Type of experiment: functional.
Experiment [17] has as its target T7, Dual specificity protein phosphatase 6 (Rattus norvegicus, UniProt Q64346).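 Note: confirmatory in vitro dose-response testing of MKP-3 inhibition; recombinant His-tagged MKP-3 made in E. coli BL21 with OMFP substrate.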
T7 sequence (Q64346 whole entry): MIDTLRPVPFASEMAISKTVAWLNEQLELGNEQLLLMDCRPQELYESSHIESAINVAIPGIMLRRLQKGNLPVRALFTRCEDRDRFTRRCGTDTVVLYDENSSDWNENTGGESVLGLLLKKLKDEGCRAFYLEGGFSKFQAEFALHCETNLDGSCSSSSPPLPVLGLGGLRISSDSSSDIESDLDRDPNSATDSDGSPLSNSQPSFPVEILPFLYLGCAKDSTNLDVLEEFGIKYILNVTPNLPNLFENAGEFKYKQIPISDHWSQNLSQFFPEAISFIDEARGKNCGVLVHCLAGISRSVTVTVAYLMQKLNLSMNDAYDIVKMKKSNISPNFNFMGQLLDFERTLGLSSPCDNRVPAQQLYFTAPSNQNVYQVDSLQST
Type of experiment: functional.

Experiment [18] addresses DNA dC->dU-editing enzyme APOBEC-3G (Homo sapiens, UniProt Q9HC16). Type of experiment: functional.
For experiment [19], the target named is DNA dC->dU-editing enzyme APOBEC-3A (Homo sapiens, UniProt P31941). Nature of the experiment: Dose Response confirmation of small molecule APOBEC3A DNA Deaminase Inhibitors via a fluorescence-based single-stranded DNA deaminase assay. [Related pubchem assays (depositor defined):AID493011, AID493024]. Type of experiment: functional.
Experiment [20] addresses T8, Cannabinoid receptor 2 (Homo sapiens, UniProt P34972). As to the kind of experiment: SAR analysis of antagonists of the Cannabinoid Receptor 2 using an Image-Based Assay - Set 2. [Related pubchem assays (depositor defined):AID1961, AID1965]. Type of experiment: functional.
For experiment [21], the target named is T8, Cannabinoid receptor 2. Nature of the experiment: SAR analysis of agonists of the Cannabinoid Receptor 2 using an Image-Based Assay - Set 2. [Related pubchem assays (depositor defined):AID1961, AID1965]. Type of experiment: functional.
For experiment [22], the target named is T9, Cannabinoid receptor 1 (Homo sapiens, UniProt P21554). Nature of the experiment: SAR analysis of antagonists of the Cannabinoid Receptor 1 using an Image-Based Assay - Set 3. [Related pubchem assays (depositor defined):AID1961, AID1965]. Type of experiment: functional.
Experiment [23] addresses T10, G-protein coupled receptor 35 (Homo sapiens, UniProt Q9HC97). Nature of the experiment: SAR analysis of Antagonists of the GPR35 Receptor using an Image-Based Assay - Set 4. [Related pubchem assays (depositor defined):[…]]. Type of experiment: functional.
Experiment [24] has as its target T10, G-protein coupled receptor 35. As to the kind of experiment: SAR analysis of Agonists of the GPR35 Receptor using an Image-Based Assay - Set 3. [Related pubchem assays (depositor defined):AID1961, AID1965]. Type of experiment: functional.
In experiment [25] the target is T9, Cannabinoid receptor 1. As to the kind of experiment: SAR analysis of agonists of the Cannabinoid Receptor 1 using an Image-Based Assay - Set 3. [Related pubchem assays (depositor defined):AID1961, AID1965]. Type of experiment: functional.
Experiment [26] deals with G-protein coupled receptor 55 (Homo sapiens, UniProt Q9Y2T6). Nature of the experiment: SAR analysis of selective Agonists of GPR55 using an Image-Based Assay - Set 2. [Related pubchem assays (depositor defined):AID1961, AID1965]. Type of experiment: functional.

Activity calls are given as the source filed them. Where only a bound is given, the exact number is not on record here.

T5 sequence (P51452 whole entry): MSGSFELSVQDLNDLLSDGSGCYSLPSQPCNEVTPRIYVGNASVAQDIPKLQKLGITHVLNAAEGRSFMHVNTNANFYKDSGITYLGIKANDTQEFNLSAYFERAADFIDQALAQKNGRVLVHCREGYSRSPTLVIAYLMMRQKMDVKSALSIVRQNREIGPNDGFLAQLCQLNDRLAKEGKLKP
T8 sequence (P34972 whole entry): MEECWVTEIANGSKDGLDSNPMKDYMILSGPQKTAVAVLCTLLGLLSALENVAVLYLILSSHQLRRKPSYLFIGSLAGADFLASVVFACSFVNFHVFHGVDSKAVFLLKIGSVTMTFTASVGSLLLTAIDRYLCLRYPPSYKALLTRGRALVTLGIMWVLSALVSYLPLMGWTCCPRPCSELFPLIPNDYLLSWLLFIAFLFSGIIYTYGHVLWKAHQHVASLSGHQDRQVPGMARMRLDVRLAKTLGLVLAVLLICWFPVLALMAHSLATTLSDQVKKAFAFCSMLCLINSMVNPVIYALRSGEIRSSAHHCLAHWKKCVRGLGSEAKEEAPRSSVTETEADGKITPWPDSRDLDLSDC
T9 sequence (P21554 whole entry): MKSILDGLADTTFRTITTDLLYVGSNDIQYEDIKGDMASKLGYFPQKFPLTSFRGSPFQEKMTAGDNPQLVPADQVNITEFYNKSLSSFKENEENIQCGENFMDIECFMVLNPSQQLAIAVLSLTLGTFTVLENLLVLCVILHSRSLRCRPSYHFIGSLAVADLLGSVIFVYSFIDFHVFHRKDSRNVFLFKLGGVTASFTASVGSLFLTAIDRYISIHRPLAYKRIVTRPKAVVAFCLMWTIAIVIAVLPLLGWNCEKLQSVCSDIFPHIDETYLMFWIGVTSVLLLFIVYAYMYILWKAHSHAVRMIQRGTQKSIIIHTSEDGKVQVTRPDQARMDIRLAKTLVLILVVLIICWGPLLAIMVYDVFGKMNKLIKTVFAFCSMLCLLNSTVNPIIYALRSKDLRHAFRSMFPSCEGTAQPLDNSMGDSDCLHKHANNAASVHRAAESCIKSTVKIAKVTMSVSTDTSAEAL
T10 sequence (Q9HC97 whole entry): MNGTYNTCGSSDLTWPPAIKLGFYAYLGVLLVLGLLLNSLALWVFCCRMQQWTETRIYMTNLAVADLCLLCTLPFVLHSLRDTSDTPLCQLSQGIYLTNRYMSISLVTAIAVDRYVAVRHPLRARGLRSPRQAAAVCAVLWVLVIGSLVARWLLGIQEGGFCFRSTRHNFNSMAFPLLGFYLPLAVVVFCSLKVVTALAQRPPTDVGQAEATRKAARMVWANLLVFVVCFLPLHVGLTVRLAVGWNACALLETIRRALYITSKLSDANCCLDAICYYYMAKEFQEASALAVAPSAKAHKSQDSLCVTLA
Sequence of G-protein coupled receptor 55 (Q9Y2T6 whole entry): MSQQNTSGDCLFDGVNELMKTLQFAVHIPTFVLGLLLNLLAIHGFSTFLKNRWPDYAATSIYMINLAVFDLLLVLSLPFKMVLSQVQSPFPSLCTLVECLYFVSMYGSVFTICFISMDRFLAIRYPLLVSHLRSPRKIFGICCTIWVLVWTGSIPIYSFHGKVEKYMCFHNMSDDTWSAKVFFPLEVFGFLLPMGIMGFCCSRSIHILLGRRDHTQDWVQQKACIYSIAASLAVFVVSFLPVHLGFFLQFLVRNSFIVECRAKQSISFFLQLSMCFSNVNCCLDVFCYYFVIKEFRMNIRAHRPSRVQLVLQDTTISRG
Sequence of DNA dC->dU-editing enzyme APOBEC-3G (Q9HC16 whole entry): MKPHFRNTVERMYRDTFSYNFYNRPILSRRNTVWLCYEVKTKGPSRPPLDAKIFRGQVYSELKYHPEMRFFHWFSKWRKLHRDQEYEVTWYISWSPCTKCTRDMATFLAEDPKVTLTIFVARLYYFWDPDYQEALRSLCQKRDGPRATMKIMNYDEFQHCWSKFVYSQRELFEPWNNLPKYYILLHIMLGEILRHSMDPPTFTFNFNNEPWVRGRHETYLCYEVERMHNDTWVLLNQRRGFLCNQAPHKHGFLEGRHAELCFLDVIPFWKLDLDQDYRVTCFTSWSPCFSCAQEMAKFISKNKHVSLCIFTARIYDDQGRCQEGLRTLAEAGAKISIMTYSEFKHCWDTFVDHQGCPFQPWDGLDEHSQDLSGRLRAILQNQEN
Sequence of Albumin (P02769 whole entry, the tested form may be a part): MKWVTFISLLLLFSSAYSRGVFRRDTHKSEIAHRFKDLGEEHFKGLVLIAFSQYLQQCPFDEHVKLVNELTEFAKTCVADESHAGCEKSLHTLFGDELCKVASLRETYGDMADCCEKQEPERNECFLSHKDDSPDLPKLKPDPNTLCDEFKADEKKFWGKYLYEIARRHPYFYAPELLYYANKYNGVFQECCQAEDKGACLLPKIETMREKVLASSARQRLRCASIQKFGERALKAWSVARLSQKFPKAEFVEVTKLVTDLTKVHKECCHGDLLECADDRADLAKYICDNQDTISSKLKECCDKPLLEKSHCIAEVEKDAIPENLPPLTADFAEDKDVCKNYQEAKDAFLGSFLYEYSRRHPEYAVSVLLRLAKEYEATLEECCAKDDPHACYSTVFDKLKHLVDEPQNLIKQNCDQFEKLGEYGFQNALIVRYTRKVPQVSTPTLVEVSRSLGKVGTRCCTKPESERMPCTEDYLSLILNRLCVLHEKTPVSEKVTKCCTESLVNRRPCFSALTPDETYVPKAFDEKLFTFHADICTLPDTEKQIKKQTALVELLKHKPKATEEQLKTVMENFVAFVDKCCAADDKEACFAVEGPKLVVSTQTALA
Sequence of NACHT, LRR and PYD domains-containing protein 3 (Q96P20 whole entry, the tested form may be a part): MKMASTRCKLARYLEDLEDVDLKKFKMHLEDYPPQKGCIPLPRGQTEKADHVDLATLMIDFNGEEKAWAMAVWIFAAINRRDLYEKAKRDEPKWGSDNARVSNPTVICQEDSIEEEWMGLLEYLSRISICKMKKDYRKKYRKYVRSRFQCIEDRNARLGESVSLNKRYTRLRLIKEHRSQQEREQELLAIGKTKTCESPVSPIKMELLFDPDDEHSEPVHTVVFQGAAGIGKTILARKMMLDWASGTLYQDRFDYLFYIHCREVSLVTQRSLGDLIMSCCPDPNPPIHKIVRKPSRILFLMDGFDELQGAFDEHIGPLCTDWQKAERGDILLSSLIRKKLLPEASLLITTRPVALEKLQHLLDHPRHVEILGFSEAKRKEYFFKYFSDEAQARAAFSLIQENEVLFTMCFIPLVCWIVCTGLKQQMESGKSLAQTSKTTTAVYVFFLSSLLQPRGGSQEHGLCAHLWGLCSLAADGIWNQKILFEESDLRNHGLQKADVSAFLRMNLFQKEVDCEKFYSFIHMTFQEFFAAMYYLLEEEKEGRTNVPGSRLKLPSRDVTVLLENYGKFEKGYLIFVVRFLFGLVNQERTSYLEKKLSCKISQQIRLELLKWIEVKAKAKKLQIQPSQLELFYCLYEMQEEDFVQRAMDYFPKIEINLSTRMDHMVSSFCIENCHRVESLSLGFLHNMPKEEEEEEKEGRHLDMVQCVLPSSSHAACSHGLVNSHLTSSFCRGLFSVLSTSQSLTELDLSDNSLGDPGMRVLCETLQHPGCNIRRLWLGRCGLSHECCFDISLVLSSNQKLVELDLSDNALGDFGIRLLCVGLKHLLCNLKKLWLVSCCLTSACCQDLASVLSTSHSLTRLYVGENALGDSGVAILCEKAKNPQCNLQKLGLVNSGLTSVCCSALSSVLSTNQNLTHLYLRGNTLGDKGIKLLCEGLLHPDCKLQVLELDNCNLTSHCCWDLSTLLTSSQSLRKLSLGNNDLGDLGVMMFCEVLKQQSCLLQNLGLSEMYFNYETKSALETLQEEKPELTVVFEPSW
Sequence of DNA dC->dU-editing enzyme APOBEC-3A (P31941 whole entry): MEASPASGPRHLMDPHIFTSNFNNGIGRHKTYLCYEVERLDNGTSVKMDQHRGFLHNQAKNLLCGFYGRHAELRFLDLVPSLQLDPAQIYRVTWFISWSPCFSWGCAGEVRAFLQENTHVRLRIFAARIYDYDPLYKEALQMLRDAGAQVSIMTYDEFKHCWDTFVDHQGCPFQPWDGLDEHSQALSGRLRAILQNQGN

Take `CC(NC(=O)c1cc2cc([N+](=O)[O-])ccc2oc1=O)C1CCCO1` (stereo unspecified): the EC50 in [1] is 13.4 µM (inactive); in experiment [2] it was 20.2 µM (inactive).
As a reminder, the AC50 is the concentration at which the activity in the assay is half-maximal. On to `O=C(NCCc1ccccc1)C(c1cccs1)N(C(=O)CCl)c1cccc(Cl)c1` (stereo unspecified), for which the AC50 in experiment [3] was 0.544 µM (active); in experiment [4], 0.154 µM (active); in [5] it was 0.331 µM (active); in experiment [6] it was 0.156 µM (active).
As usually defined, the IC50 is the midpoint of a concentration-inhibition curve. Turning to `Cn1c(=O)c(C(=O)NNC(=O)c2ccccc2F)c(O)c2ccccc21`, the EC50 in experiment [7] was 4.65 µM (active); in experiment [10], > 150 µM (not active); in [11], 5.36 µM (active); in experiment [12], 18.6 µM (active). Besides, the figures for the IC50 in experiment [8] and in experiment [9] were > 94.1 µM (inactive) and 1.94 µM (active), respectively.
In the case of `NS(=O)(=O)c1cccc(C(=O)NC2CCSc3ccccc32)c1` (stereo unspecified), the IC50 in experiment [13], in [14], in [15], in [16] and in experiment [17] was > 100 µM (inactive) each time.
As for `COc1ccccc1OC(C)C(=O)N1CCC(Cc2ccccc2)CC1` (stereo unspecified), the figures for the IC50 in experiment [18] and in [19] were 6.99 µM (active) and 7.11 µM (active), respectively.
On to `CCCc1cc(C(=O)Nc2cc(S(=O)(=O)N3CCOCC3)ccc2OC)sc1C`, for which the results for the IC50 in experiment [20], in [22] and in experiment [23] were > 32 µM (inactive), 7.68 µM (active) and > 32 µM (inactive), respectively. In addition, the EC50 in [21], in experiment [24], in experiment [25] and in [26] was > 32 µM (inactive) each time.
